The subject of assay [1] is peripheral calcium uptake, e.g. in blood vessels and the heart. To be noted: cited from earlier work.
For assay [2], the system named is voltage operated calcium channels. The assay can be described thus: inhibition of depolarization-stimulated 45Ca uptake into brain synaptosomes. Type of assay: biochemical, male Wistar rat. As to conditions: inhibition of K+-stimulated 45Ca uptake, rat cerebral cortex synaptosomes (P2), 15 s incubation. An excerpt: The pharmacological properties of the compounds of the invention can be illustrated by determining their capability to inhibit calcium uptake into brain synaptosomes.
Depolarization of neuronal membranes leads to an opening of socalled `voltage operated calcium channels` (VOC) in the membranes which allows a massive influx of calcium from the extracellular space. A crude synaptosomal preparation (socalled P2 fraction) contains small vesicles surrounded by neuronal membrane and it is possible in such a preparation to study a depolarization-induced opening of VOC.
A male Wistar rat is decapitated and the cerebral cortex removed and homogenized in 20 ml. of ice-cold 0.32 M sucrose using a glass homogenizer with a teflon pestle. All subsequent steps for isolation of synaptosomes are done at 0°-4° C. The homogenate is centrifuged at 1000×g for 10 min and the resulting supernatant is re-centrifuged at 18000×g for 20 min. This pellet (P2) is resuspended in 0.32 M sucrose (10 ml per g of original tissue) with a teflon pestle.
The tubes are pre-incubated for 30 min on ice and then for 6 min at 37° C. in a water bath.
The incubation is continued for 15 s.
The amount of radioactivity on the filter disc is determined by liquid scintillation spectrometry.
Test substances are dissolved in 10 ml of 48% ethanol at a concentration of 0.44 mg/ml. Dilutions are made in 48% ethanol to give final concentrations of 0.1, 0.3, 1, 3 and 0 10 μg/ml. Experiments are performed in duplicate. Controls for depolarized and nondepolarized samples are included in the assay and test substances are only tested in depolarized samples.
The IC50 value is estimated from dose response curves.

Converted amounts (≈) assume the structure as drawn. Where a name gives a salt, the structure may show the parent alone.

Regarding `COc1ccc([C@@H]2Sc3ccccc3N(CCN(C)C)C(=O)[C@@H]2OC(C)=O)cc1` [Diltiazem], the “activity against peripheral calcium uptake” value in assay [1] is “have activity”.
For the compound `CCCCN1CC[C@@H](c2ccc(F)cc2)[C@H](COc2ccc(OC)cc2)C1` (single isomer, unassigned), the IC50 in assay [2] came out at 2.3 µg/mL (≈ 6.19 µM).
In the case of `CCN1CC[C@@H](c2ccc(F)cc2)[C@H](COc2ccc(C(C)(C)C)cc2)C1.Cl` (relative stereo) [trans-1-ethyl-4-(4-fluorophenyl)-3-(4-t-butylphenoxymethyl)piperidine hydrochloride], the IC50 in assay [2] was 2.5 µg/mL.
Regarding `COc1ccc(CCN(C)CCCC(C#N)(c2ccc(OC)c(OC)c2)C(C)C)cc1OC` (stereo not drawn) [Verapamil], in assay [1], the “activity against peripheral calcium uptake” value is “have activity”.
In the case of `CCCCCN1CC[C@@H](c2ccc(F)cc2)[C@H](COc2ccc3c(c2)OCO3)C1` (single isomer, unassigned), the IC50 in assay [2] came to 1.5 µg/mL (≈ 3.75 µM).
Same read-out and setting: in the case of `CCCCN1CC[C@@H](c2ccc(F)cc2)[C@H](COc2ccc3c(c2)OCO3)C1` (single isomer, unassigned) it was 1.9 µg/mL (≈ 4.93 µM); in that of `CCCCCN1CC[C@@H](c2ccc(F)cc2)[C@H](COc2ccc3c(c2)CCCC3)C1` (single isomer, unassigned), 0.4 µg/mL (≈ 0.977 µM); in that of `CCCCCN1CC[C@@H](c2ccccc2)[C@H](COc2ccc3c(c2)OCO3)C1` (single isomer, unassigned), 2.4 µg/mL (≈ 6.29 µM).
The same measure, in the same setting: in the case of `CCCCCCCCN1CC[C@@H](c2ccc(F)cc2)[C@H](COc2ccc3c(c2)OCO3)C1` (single isomer, unassigned) [(-)-trans-4-(-4-fluoropheny1)-3-(3,4-methylenedioxyphenoxymethyl)-1-octylpiperidine hydrochloride] it was 2.2 µg/mL; in that of `COc1ccc(OC[C@@H]2CN(C(C)C)CC[C@H]2c2ccc(F)cc2)cc1.Cl` (single isomer, unassigned) [(-)-trans-1-isopropyl-4-(4-fluorophenyl)-3-(4-methoxyphenoxymethyl)-piperidine hydrochloride], 4.3 µg/mL.
As for `C=CCN1CC[C@@H](c2ccc(F)cc2)[C@H](COc2ccc3c(c2)OCO3)C1` (single isomer, unassigned) [(-)--trans-4-(-4-fluorophenyl)-3-(3,4-methylenedioxyphenoxymethyl)-1-allyl-piperidine hydrochloride], in assay [2], the IC50 was found to be 0.8 µg/mL.
Take `COC(=O)C1=C(C)NC(C)=C(C(=O)OC)C1c1ccccc1[N+](=O)[O-]` [Nifedipin]: the “activity against peripheral calcium uptake” value in assay [1] is “have activity”.
